Target: rBIIa/beta 1 sodium channels (Rattus norvegicus, UniProt P04775)
Assay: Electrophysiological assay, two-electrode voltage clamp in Xenopus oocytes
Type: cell-based
Conditions: apparent inhibition constant from single point inhibition data; inactivated-state voltage protocol; channels expressed in Xenopus oocytes; read-out: RBIIA/β1 Ki
Procedure: Electrophysiological Assay:
Electrophysiological Assay was used to measure potencies of compounds of the present invention rBIIa/beta 1 sodium channels expressed in Xenopus oocytes.
Preparation of cRNA encoding cloned rat brain type IIa (rBIIa) and beta 1 (β1): cDNA clones encoding the rat brain beta 1 subunit were cloned in house using standard methods, and mRNA were prepared by standard methods. mRNA encoding rBIIa was provided by Dr. A. Golden (UC Irvine). The mRNAs were diluted and stored at −80° C. in 1 μL aliquots until injection.
Preparation of oocytes: Mature female Xenopus laevis were anaesthetized (20-40 min) using 0.15% 3-aminobenzoic acid ethyl ester (MS-222) following established procedures (Woodward, R. M., et al., Mol. Pharmacol. 41:89-103 (1992)).
Two to six ovarian lobes were surgically removed. Oocytes at developmental stages V-VI were dissected from the ovary, oocytes were still surrounded by enveloping ovarian tissues. Oocytes were defolliculated on the day of surgery by treatment with collagenase (0.5 mg/mL Sigma Type I, or Boehringer Mannheim Type A, for 0.5-1 hr). Treated oocytes were vortexed to dislodge epithelia, washed repeatedly and stored in Barth's medium containing 88 mM NaCl, 1 mM KCl, 0.41 mM CaCl2, 0.33 mM Ca(NO3)2, 0.82 mM MgSO4, 2.4 mM NaHCO3, 5 mM HEPES, pH 7.4 adjusted with 0.1 mg/mL gentamycin sulphate.
Micro-injection of oocytes: Defolliculated oocytes were micro-injected using a Nanoject injection system (Drummond Scientific Co., Broomall, Pa.). Injection pipettes were beveled to minimize clogging. Tip diameter of injection pipettes was 15-35 μm. Oocytes were microinjected with approximately 50 nL 1:10 ratio mixtures of cRNAs for rBIIa and beta 1 respectively.
Electrophysiology: Membrane current responses were recorded in frog Ringer solution containing 115 mM NaCl, 2 mM KCl, 1.8 mM CaCl2, 5 mM HEPES, pH 7.4. Electrical recordings were made using a conventional two-electrode voltage clamp (Dagan TEV-200) over periods ranging between 1-7 days following injection. The recording chamber was a simple gravity fed flow-through chamber (volume […] depending on adjustment of aspirator). Oocytes were placed in the recording chamber, impaled with electrodes and continuously perfused (5-15 mL min^−1) with frog Ringer's solution. The tested compounds were applied by bath perfusion.
Voltage protocols for evoking sodium channel currents: The standard holding potential for whole oocyte clamp was −120 mV. Standard current-voltage relationships were elicited by 40 ms depolarizing steps starting from −60 mV to +50 mV in 10 mV increments. Peak currents were measured as the maximum negative current after depolarizing voltage steps. The voltage from maximum current response was noted and used for the next voltage protocol.
The purpose was to find compounds that are state dependent modifiers of neuronal sodium channels. Preferably, the compounds have a low affinity for the rested/closed state of the channel, but a high affinity for the inactivated state. The following voltage protocol was used to measure a compounds affinity for the inactivated state. Oocytes were held at a holding potential of −120 mV. At this membrane voltage, nearly all of the channels would be in the closed state. Then a 4 second depolarization was made to the voltage where the maximum current was elicited. At the end of this depolarization, nearly all the channels would be in the inactivated state. A 10 ms hyperpolarizing step was then made in order to remove some channels from the inactivated state. A final depolarizing test pulse was used to assay the sodium current after this prolonged depolarization (see analysis below). Sodium currents were measured at this test pulse before and after the application of the tested compound. Data was acquired using pClamp 8.0 software and analyzed with clampfit software (Axon instruments). […]

Compound: O=C(NCCN1CCCCC1)c1cncc(-c2ccc(Oc3ccc(F)cc3)cc2)c1 [5-[4-(4-fluorophenoxy)phenyl]pyridine 3-carboxylic acid 2-(N-piperidinyl)ethylamide]
- Ki: 0.78 µM

Compound: COc1ccc(-c2ccc(C(N)=O)cn2)cc1 [2-(4-Methoxyphenyl)pyridine-5-carboxamide]
- Ki: 44.6 µM

Compound: NC(=O)c1ccc(-c2ccc3ccccc3c2)nc1 [2-(2-naphthyl)pyridine-5-carboxamide, 2-(2-Naphthyl)pyridine-5-carboxamide]
- Ki: 28.1 µM

Compound: CCCCc1ccc(-c2cncc(C(N)=O)c2)cc1 [5-(4-n-Butylphenyl)pyridine-3-carboxamide]
- Ki: 11.1 µM

Compound: NC(=O)c1cncc(-c2ccc(OC(F)(F)F)cc2)c1 [5-(4-Trifluoromethoxyphenyl)pyridine-3-carboxamide]
- Ki: 25 µM

Compound: NC(=O)c1cncc(-c2ccc(Oc3ccccc3)cc2)c1 [5-(4-Phenoxyphenyl)pyridine-3-carboxamide]
- Ki: 5.43 µM

Compound: CSc1ccc(-c2cncc(C(N)=O)c2)cc1 [5-(4-Thiomethylphenyl)pyridine-3-carboxamide]
- Ki: 29 µM

Compound: NC(=O)c1ccc(-c2ccc(OC(F)(F)F)cc2)nc1 [2-(4-Trifluoromethoxyphenyl)pyridine-5-carboxamide]
- Ki: 34.2 µM

Compound: COc1ccc(-c2cncc(C(N)=O)c2)cc1 [5-(4-Methoxyphenyl)pyridine-3-carboxamide]
- Ki: 54.4 µM

Compound: CCOc1ccc(-c2ccc(C(N)=O)cn2)cc1 [2-(4-ethoxyphenyl)pyridine-5-carboxamide, 2-(4-Ethoxyphenyl)pyridine-5-carboxamide]
- Ki: 29.7 µM

Compound: NC(=O)c1ccc(-c2ccc(C(F)(F)F)cc2)nc1 [2-(4-Trifluoromethylphenyl)pyridine-5-carboxamide]
- Ki: 24.7 µM

Compound: NC(=O)c1cccnc1-c1ccc(Oc2ccc(F)cc2)cc1 [2-[4-(4-Fluorophenoxy)phenyl]pyridine-3-carboxamide]
- Ki: 13.6 µM

Compound: CCOc1ccc(-c2cncc(C(N)=O)c2)cc1 [5-(4-ethoxyphenyl)pyridine-3-carboxamide, 5-(4-Ethoxyphenyl)pyridine-3-carboxamide]
- Ki: 36.2 µM

Compound: CC(C)(C)c1ccc(-c2cc(C(N)=O)ccn2)cc1 [2-(4-tert-Butylphenyl)pyridine-4-carboxamide]
- Ki: 53.1 µM

Compound: CC(C)(C)c1ccc(-c2ccc(C(N)=O)cn2)cc1 [2-(4-tert-Butylphenyl)pyridine-5-carboxamide]
- Ki: 32.3 µM

Compound: NC(=O)c1ccc(-c2ccc(Oc3ccccc3)cc2)nc1 [2-(4-Phenoxyphenyl)pyridine-5-carboxamide]
- Ki: 14.6 µM

Compound: CC(C)(C)c1ccc(-c2cncc(C(N)=O)c2)cc1 [5-(4-tert-Butylphenyl)pyridine-3-carboxamide]
- Ki: 18.6 µM

Compound: NC(=O)c1ccnc(-c2ccc(Oc3ccccc3)cc2)c1 [2-(4-Phenoxyphenyl)pyridine-4-carboxamide]
- Ki: 22.3 µM

Compound: CSc1ccc(-c2ccc(C(N)=O)cn2)cc1 [2-(4-Thiomethylphenyl)pyridine-5-carboxamide]
- Ki: 35.6 µM

Compound: O=C(NCCN1CCCCC1)c1ccc(-c2ccc(Oc3ccc(F)cc3)cc2)nc1 [2-[4-(4-Fluorophenoxy)phenyl]pyridine 5-carboxylic acid 2-(N-piperidinyl)ethylamide]
- Ki: 0.95 µM

Compound: NC(=O)c1ccnc(-c2ccc(-c3ccccc3)cc2)c1 [2-(2-phenylphenyl)pyridine-4-carboxamide, 2-(4-Phenylphenyl)pyridine-4-carboxamide]
- Ki: 24.9 µM

Compound: NC(=O)c1cncc(-c2ccc(C(F)(F)F)cc2)c1 [5-(4-Trifluoromethylphenyl)pyridine-3-carboxamide]
- Ki: 23 µM

Compound: CC(C)c1ccc(-c2cc(C(N)=O)ccn2)cc1 [2-(4-i-Propylphenyl)pyridine-4-carboxamide]
- Ki: 39.2 µM

Compound: CCOc1ccc(-c2cc(C(N)=O)ccn2)cc1 [2-(4-ethoxyphenyl)pyridine-4-carboxamide, 2-(4-Ethoxyphenyl)pyridine-4-carboxamide]
- Ki: 14.7 µM

Compound: CCCCc1ccc(-c2ccc(C(N)=O)cn2)cc1 [2-(4-n-Butylphenyl)pyridine-5-carboxamide]
- Ki: 24.5 µM

Compound: NC(=O)c1ccnc(-c2ccc(Oc3ccc(F)cc3)cc2)c1 [2-[4-(4-Fluorophenoxy)phenyl]pyridine-4-carboxamide]
- Ki: 6.91 µM

Compound: NC(=O)c1cncc(-c2ccc3ccccc3c2)c1 [5-(2-naphthyl)pyridine-3-carboxamide, 5-(2-Naphthyl)pyridine-3-carboxamide]
- Ki: 35.1 µM

Compound: NC(=O)c1ccc(-c2ccc(-c3ccccc3)cc2)nc1 [2-(2-phenylphenyl)pyridine-5-carboxamide, 2-(4-Phenylphenyl)pyridine-5-carboxamide]
- Ki: 40.7 µM

Compound: CCCCc1ccc(-c2cc(C(N)=O)ccn2)cc1 [2-(4-n-Butylphenyl)pyridine-4-carboxamide]
- Ki: 32.9 µM

Compound: NC(=O)c1ccnc(-c2ccc(OC(F)(F)F)cc2)c1 [2-(4-Trifluoromethoxyphenyl)pyridine-4-carboxamide]
- Ki: 24.7 µM

Compound: COc1ccc(-c2cc(C(N)=O)ccn2)cc1 [2-(4-Methoxyphenyl)pyridine-4-carboxamide]
- Ki: 6.17 µM
